Measured values published in US20220380329A1, “A HYPERBRANCHED POLYGLYCEROL POLYGLYCIDYL ETHER AND ITS USE AS CROSSLINKER FOR POLYSACCHARIDES” (BIOPOLIMERI S.R.L., priority 2019, published 2022).

Test system: 3T3 mouse fibroblasts
Experiment: MTT viability assay, cells grown in direct contact with the crosslinker
Assay type: cell-based
Conditions: direct contact with cross-linker solutions of same epoxy equivalents, without polysaccharide; control culture medium in NaCl 0.9%
Experimental: MTT assay was used to evaluate the viability of 3T3 mouse fibroblasts grown.
c) MTT assay on cells grown in direct contact with the crosslinker
The MTT assay was performed on cells grown in direct contact with a solution containing cross-linker solutions. The solution contains the same epoxy equivalents, following the same steps of the manufacturing process of hydrogels—such as chemical reaction, washing and sterilization, but without the addition of the polysaccharide.

**Q.** For `C(CCOCC1CO1)COCC1CO1` (stereo not shown) [BDDE, 1,4-butane diol diglycidyl ether], which “cell viability (MTT)” value is on record?
**A.** significant decrease of cells viability and signs of suffering
